20 compounds from ChEMBL document CHEMBL1781960, “Discovery of non-glycoside sodium-dependent glucose co-transporter 2 (SGLT2) inhibitors by ligand-based virtual screening” (J Med Chem, 2010) can be followed below.

For one test, the target named is T1, Sodium/glucose cotransporter 2 (Homo sapiens) (UniProt P31639).
T1 sequence (whole entry): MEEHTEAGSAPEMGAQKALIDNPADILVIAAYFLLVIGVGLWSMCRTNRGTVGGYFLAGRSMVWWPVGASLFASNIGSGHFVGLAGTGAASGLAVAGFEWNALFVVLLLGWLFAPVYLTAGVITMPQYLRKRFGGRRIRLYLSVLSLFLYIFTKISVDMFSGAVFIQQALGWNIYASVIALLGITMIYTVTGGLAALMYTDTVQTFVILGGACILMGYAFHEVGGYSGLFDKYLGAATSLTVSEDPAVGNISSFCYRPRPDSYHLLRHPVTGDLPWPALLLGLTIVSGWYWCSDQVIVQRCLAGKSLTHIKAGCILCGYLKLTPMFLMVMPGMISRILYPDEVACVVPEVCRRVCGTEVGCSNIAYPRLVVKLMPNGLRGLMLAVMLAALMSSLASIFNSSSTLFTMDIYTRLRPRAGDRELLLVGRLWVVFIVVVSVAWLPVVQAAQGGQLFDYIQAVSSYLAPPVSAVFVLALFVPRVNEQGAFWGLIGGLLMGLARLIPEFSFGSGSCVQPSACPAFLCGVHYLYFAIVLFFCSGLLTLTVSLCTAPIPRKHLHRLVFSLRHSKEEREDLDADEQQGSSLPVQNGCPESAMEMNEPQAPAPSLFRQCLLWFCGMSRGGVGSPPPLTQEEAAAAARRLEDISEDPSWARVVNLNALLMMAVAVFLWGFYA
Put plainly: (§1) Inhibition of human SGLT2 expressed in CHO-K1 cells assessed as reduction in [14C]-alpha-methylglucopyranoside uptake after 2 hrs by liquid scintillation counting. The test is classed as cell-based.
As to `CC(C)(C)C(O)Cn1c(=N)n(Cc2ccccc2)c2ccccc21` (stereo not drawn), the inhibition entry is “Dose-dependent effect”.
Regarding `COc1ccc(NC(=S)NNC(=O)c2cc(-c3ccccc3)sc2N)cc1`, the inhibition entry is “Dose-dependent effect”.
Same read-out and setting: as for `COc1cc(C(Nc2cccc(C)n2)c2ccc3ccc(C)nc3c2O)cc(OC)c1OC` (stereo not drawn), the entry is “Dose-dependent effect”.

Another test concerns the target T2, Sodium/glucose cotransporter 2 (Homo sapiens, UniProt P31639).
T2 sequence (P31639 whole entry): T1 sequence (whole entry)
Described as §1. The test is classed as cell-based.
As for `N=c1n(Cc2ccc(Cl)cc2)c2ccccc2n1CC(O)c1ccco1` (stereo not drawn), the EC50 was 11 µM.
As for `COc1ccc(C(O)Cn2c(=N)n(Cc3ccccc3)c3ccccc32)cc1` (stereo not drawn), the EC50 was 16.2 µM.
For the compound `N=c1n(Cc2ccccc2)c2ccccc2n1CC(O)c1ccco1` (stereo not drawn), the EC50 was 34.7 µM.
`N=c1n(CCO)c2ccccc2n1Cc1ccccc1`: the concentration giving a half-maximal response (EC50) is > 50 µM.
In the case of `CC(C)(C)C(O)Cn1c(=N)n(Cc2ccccc2)c2ccccc21` (stereo not drawn), the EC50 was found to be 3.85 µM.
Consider `N=c1n(Cc2ccccc2)c2ccccc2n1CC(O)COc1ccccc1` (stereo not drawn), for which the EC50 was found to be 4.6 µM.
The same measure, in the same setting: with `OC[C@H]1O[C@@H](Oc2cccc3[nH]cc(CCc4ccc5c(c4)CCO5)c23)[C@H](O)[C@@H](O)[C@@H]1O` the figure was 0.024 µM; with `COc1ccc(NC(=S)NNC(=O)c2cc(-c3ccccc3)sc2N)cc1`, 8.98 µM.
The same measure, in the same setting: as for `CCc1ccc(Cc2cc([C@@H]3O[C@H](CO)[C@@H](O)[C@H](O)[C@H]3O)ccc2C)cc1`, the figure is 0.012 µM; as for `COc1cc(C(Nc2cccc(C)n2)c2ccc3ccc(C)nc3c2O)cc(OC)c1OC` (stereo not drawn), 5.92 µM; as for `CCOc1ccc(Cc2cc([C@@H]3O[C@H](CO)[C@@H](O)[C@H](O)[C@H]3O)ccc2C)cc1`, 0.0011 µM.
On the same count and under the same terms, with `N=c1n(CCO)c2ccccc2n1Cc1ccc(Cl)cc1` the figure was 31.1 µM; with `CC(C)(C)C(O)Cn1c(=N)n(CCN2CCCCC2)c2ccccc21` (stereo not drawn), > 50 µM; with `N=c1n(CC(=O)O)c2ccccc2n1Cc1ccc(Cl)cc1`, > 50 µM.
For `OC[C@H]1O[C@@H](n2cc(Cc3ccc(C4CC4)cc3)c3c(F)cc(F)cc32)[C@H](O)[C@@H](O)[C@@H]1O`, the EC50 amounted to 0.0028 µM.
Still for that read-out and setting: as for `N=c1n(Cc2ccccc2)c2ccccc2n1CC(O)c1cccs1` (stereo not drawn), the figure is 19.1 µM; as for `OC[C@H]1O[C@@H](n2cc(Cc3ccc(C4CC4)cc3)c3c(Cl)cccc32)[C@H](O)[C@@H](O)[C@@H]1O`, 0.0023 µM.
As to `Cn1cc(CCc2ccc3c(c2)CCO3)c2c(O[C@@H]3O[C@H](CO)[C@@H](O)[C@H](O)[C@H]3O)cccc21`, the EC50 came out at 0.067 µM.
The same measure, in the same setting: as for `C=CCn1c(=N)n(CC(O)C(C)(C)C)c2ccccc21` (stereo not drawn), the figure is 40.4 µM; as for `OC[C@H]1O[C@@H](n2cc(Cc3ccc(C4CC4)cc3)c3c(F)cccc32)[C@H](O)[C@@H](O)[C@@H]1O`, 0.0019 µM.
